“And” between values parts separate entries of the source, which are not always exact repeats. Equal entries are not always repeated. Where two headings read alike, the source gives them in different places.
Experiments:
P. falciparum D10 = P. falciparum D10 growth inhibition by flow cytometry; format: cell-based; details: for EC50: Plasmodium falciparum, D10, growth inhibition by flow cytometry, 12-point dilution series, 72 h
Experimental: Pranlukast and selected analogues were then evaluated in a P. falciparum parasite viability assay. For this assay, we followed the procedure described by [Gamo et al. (2010)], that used lactate dehydrogenase (LDH) as a readout for parasite viability. In this assay, 3D7 parasites were incubated over 72 h in the presence of increasing concentrations of compounds. […]. For a comparison, selected compounds were incubated in the presence of P. falciparum D10 parasites for 72 h (Table 1, Fig. S14) and growth inhibition measured by flow cytometry. […].

HepG2 cells [1] = assay: HepG2 growth inhibition assay; format: cell-based; details: Homo sapiens, 10-point dilution series, 48 h, Cell Titre-Glo
Experimental: HepG2 cells were cultured in Dulbeccos modified eagle's medium (DMEM) supplemented with 10% fetal calf serum (FCS), in a humidified incubator at 37 °C and 5% CO2. Ten-point compound titration assays were performed by treating cells (1 × 10^3) for 48 h in 384 well tissue culture treated plates (Greiner). Cytotoxicity was determined using Cell Titer Glo (Promega) and calculated as a percentage using DMSO as a positive growth control and 10 μM Bortezomib as a negative growth control. EC50 values were calculated using a 4-parameter log dose, non-linear regression analysis, with sigmoidal dose response (variable slope) curve fit using Graph Pad Prism (version 6.05). 0 and 100 constraint parameters were used for curve fitting. […]

D10-PfPHG parasites = assay: Schizont rupture assay; format: cell-based, P. falciparum
Experimental: D10-PfPHG parasites ([Wilson et al., 2010]) were cultured in human O^+ erythrocytes in RPMI-HEPES culture medium (pH 7.4, 50 μg/mL hypoxanthine, 25 mM NaHCO3, 20 μg/mL gentamicin, 0.5% Albumax II (Thermo Fisher Scientific) according to established protocols ([Trager and Jensen, 1976]) and maintained in an atmosphere of 1% O2, 4% CO2 and 95% N2. For assessment of merozoite invasion after schizont rupture, parasites were tightly synchronised to a 4 h window of invasion using heparin ([Boyle et al., 2010]; [Wilson et al., 2015]) and then grown for a further 42 h. Drug treatments were setup at 2–3% parasitaemia and 1% haematocrit in 50 μL volumes with a 1 in 10 dilution of drug added when parasites were 44–48 h post invasion. After 6 h of drug treatment and immediately after invasion was expected to finish, the assays were treated with 5 μg/mL ethidium bromide (EtBr, Bio-Rad) for 5 min prior to flow cytometry assessment of parasitaemia using a Becton Dickinson Accuri. Gating of newly invaded rings, free merozoites and unruptured late stages was achieved as per published methods ([Wilson et al., 2013]).
To determine if the modest activity of pranlukast and analogues in the parasite viability assay was a consequence of invasion inhibition, rather than inhibition at another stage of blood stage parasite development, we performed an assay that measures the effect of compound treatment on P. falciparum D10 asexual stage transition between late schizont and ring stages ([Wilson et al., 2013]). In this assay, highly synchronised mature schizont-stage parasites were incubated with pranlukast and selected analogues at 50 and 100 μM and the transition to newly invaded ring stage parasites was quantified by flow cytometry. In parallel, the rate of schizont rupture and merozoite release was quantified to assess whether any reduction in newly invaded ring stages was due to a block affecting merozoite release or development. […] Neither DMSO (at the maximal concentration used for the drug treatments of 0.1%) or a non-invasion inhibitory mAb control caused a reduction in merozoite invasion. […] […].

[2] = target: P. falciparum Rh5 (Rh5 – basigin interaction) (Plasmodium falciparum, UniProt Q8IFM5); assay: biochemical; format: binding
P. falciparum Rh5 (Rh5 – basigin interaction), sequence (Q8IFM5 24-526): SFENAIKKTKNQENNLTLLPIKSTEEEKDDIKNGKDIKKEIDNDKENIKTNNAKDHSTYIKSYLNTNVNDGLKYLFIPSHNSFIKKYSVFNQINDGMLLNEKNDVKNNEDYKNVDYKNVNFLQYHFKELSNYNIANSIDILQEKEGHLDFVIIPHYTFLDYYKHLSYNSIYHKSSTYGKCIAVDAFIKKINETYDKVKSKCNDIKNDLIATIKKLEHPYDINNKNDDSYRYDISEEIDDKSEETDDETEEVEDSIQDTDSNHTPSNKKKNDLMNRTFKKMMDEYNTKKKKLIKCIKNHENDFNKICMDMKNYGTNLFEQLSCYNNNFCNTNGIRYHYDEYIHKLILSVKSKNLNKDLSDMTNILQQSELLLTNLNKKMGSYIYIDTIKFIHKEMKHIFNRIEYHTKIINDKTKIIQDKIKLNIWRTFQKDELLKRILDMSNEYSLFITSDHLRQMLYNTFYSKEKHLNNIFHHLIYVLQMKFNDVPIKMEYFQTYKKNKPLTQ

[3] = tested on: P. falciparum 3D7 parasites; assay: P. falciparum parasite viability assay (LDH); format: cell-based; details: LDH activity, 10-point dilution series, 72 h, read-out: P. falciparum 3D7 EC50
Experimental: A modified version of the lactate dehydrogenase (LDH) assay described by [Gamo et al. […] Compounds were pre-dispensed in 384-well plates, RPMI/Albumax growth media was added, and P. falciparum inoculated. Plates were incubated for 72 h and then frozen at −80 °C overnight. LDH activity was quantified with the modified cofactor 3-acetylpyridine adenine dinucleotide (APAD) (Sigma Aldrich) by measuring absorbance of the tetrazolium indicator nitro blue tetrazolium (NBT) (Sigma Aldrich) at 650 nm. Parasite conditions: […] Growth inhibition assay: […] Intermediate compound dilution plates were prepared by dispensing 5 μL from each well of the compound master plate into 11.5 μL of RPMI/Albumax growth media. Duplicate assay plates (384-well) were then prepared by dispensing 0.5 μL of compound from the intermediate dilution plates into 9.5 μL of RPMI/Albumax growth media. […] The final DMSO concentration was 0.1% (to limit toxicity to parasites). […] Evaluation of parasite growth measuring lactate dehydrogenase (LDH) activity: After 72 h of incubation, plates were frozen at −80 °C overnight and then thawed at room temperature for at least 4 h. […] Plates were shaken to ensure mixing and absorbance at 650 nm was monitored using a PerkinElmer Envision plate reader after 30 min of incubation at room temperature. Data were normalised to percent growth inhibition using positive and negative controls and analyzed using TIBCO Spotfire software.

HepG2 cells [4] = tested on: HepG2 cells; set-up: method as in Pingaew et al., 2014; details: incubation time of 48 h, MTT assay ref Pingaew et al., 2014; read-out: HepG2 EC50 literature value; cited from earlier work
[5] = AlphaScreen TruHits counterscreen assay; details: for IC50: 11 pt titration, flag (POORFIT given as ~), read-out: Basigin_IC50_Counter_TruHits IC50; for % Inhibition Counter: TruHits counterscreen, single point, 10 μM in duplicate
Experimental: The counterscreen assay was conducted using AlphaScreen TruHits kit (PerkinElmer). Biotinylated acceptor beads and Streptavidin donor beads were both diluted in assay buffer (final concentration of 10 μg/mL). Using the Combi-multidrop, 10 μL of each bead solution (20 μg/mL prepared in assay buffer) was added to every well of the assay plate under subdued lighting. Compound addition and assay readout was performed as described above.

[6] = Basigin_IC50_Counter_Alpha counterscreen; details: 11 pt titration; flag (POORFIT given as ~)
Description: Supplement mmc3.xlsx, sheet "Report" | column: Basigin_IC50_Counter_Alpha IC50

[7] = 50 and 100 μM, 6 h, flow cytometry
[8] = Plasmodium falciparum, 3D7, 72 h
[9] = 11 pt titration of the 45 hits, flag (POORFIT given as ~), two lines per compound, read-out: Basigin_IC50_Assay_Alpha IC50

Row | Molecule | EC50 (P. falciparum D10) | EC50 (HepG2 cells [1]) | merozoite invasion (newly invaded early ring stages) (D10-PfPHG parasites; [7]) | IC50 [2] | IC50 [5] | IC50 [6] | IC50 [2, 9] | also measured
1 | CCOC(=O)c1cc(=O)c2cccc(NC(=O)c3ccc(OCCCc4ccccc4)cc3)c2o1 [Compound 13, Ethyl 4-oxo-8-(4-(3-phenylpropoxy)benzamido)-4H-chromene-2-carboxylate] | > 50 µM | > 50 µM | minimal inhibition of merozoite invasion | > 50 µM |  |  |  | free merozoite numbers (D10-PfPHG parasites; [7]): no reduction in free merozoite numbers; EC50 [3, 8]: > 50 µM
2 | O=C(Nc1cccc2c(=O)cc(C(=O)O)oc12)c1ccc(OCCc2ccccc2)cc1 [Compound 16, 4-Oxo-8-(4-phenethoxybenzamido)-4H-chromene-2-carboxylic acid] | 6.7 µM | > 50 µM | substantial reduction in the numbers of merozoites that had invaded and formed early ring stages | 40 µM |  |  |  | fold more active against the D10 strain than the 3D7 strain (P. falciparum D10; EC50 D10 vs 3D7): 5 fold; free merozoite numbers (D10-PfPHG parasites; lowest concentration tested (50 μM)): minimal loss in free merozoite numbers; EC50 [3]: 37 µM; EC50 [3, 8]: 40 µM
3 | O=C(Nc1cccc2c(=O)cc(C(=O)O)oc12)c1ccc(OCCCc2ccccc2)cc1 [Compound 17, 4-Oxo-8-(4-(3-phenylpropoxy)benzamido)-4H-chromene-2-carboxylic acid] | 19 µM | > 50 µM | minimal inhibition of merozoite invasion | 24 µM |  |  |  | free merozoite numbers (D10-PfPHG parasites; [7]): no reduction in free merozoite numbers; EC50 [3, 8]: 15 µM
4 | O=C(Nc1cccc2c(=O)cc(C(=O)O)oc12)c1ccc(OCCCCc2ccccc2)cc1 [Compound 18, 4-Oxo-8-(4-(4-phenylbutoxy)benzamido)-4H-chromene-2-carboxylic acid] | 42 µM | > 50 µM | reduction in numbers of merozoites that had invaded and formed early ring stages | 21 µM |  |  |  | free merozoite numbers (D10-PfPHG parasites; [7]): similarly reduced numbers of free merozoites; EC50 [3, 8]: > 50 µM
5 | COc1cc([C@@H]2c3cc4c(cc3[C@@H](O[C@@H]3O[C@@H]5CO[C@@H](C)O[C@H]5[C@H](O)[C@H]3O)[C@H]3COC(=O)[C@H]23)OCO4)cc(OC)c1O [Etoposide, reference compound] |  | 15.9 µM |  |  |  |  |  | EC50 (HepG2 cells [4]): 30.2 µM
6 | O=C(O)c1ccccc1Nc1cccc(OCc2ccc3ccccc3n2)c1 [SR2540, reference compound] | 6.1 µM | > 50 µM | reduction in numbers of merozoites that had invaded and formed early ring stages | > 50 µM |  |  |  | free merozoite numbers (D10-PfPHG parasites; [7]): similarly reduced numbers of free merozoites; increase in unruptured schizonts (D10-PfPHG parasites; at the concentrations tested (50 and 100 μM)): > 40%
7 | CCCN1CCc2cccc3c2[C@H]1Cc1ccc(O)c(O)c1-3 [WEHI-1215034] |  |  |  |  | > 25 µM | 20 µM and 22.9 µM | 1.56 µM and 2.23 µM | 
8 | CN1CCc2cc(O)cc3c2[C@H]1Cc1ccc(O)c(O)c1-3 [WEHI-1215043] |  |  |  |  | > 25 µM | > 25 µM | 4.02 µM and 4.98 µM | 
9 | CCCN1CCc2cc(O)cc3c2[C@H]1Cc1ccc(O)c(O)c1-3 [WEHI-1215052] |  |  |  |  | > 25 µM | > 25 µM | 7.45 µM and 8.43 µM | 
10 | CC(=O)N1CCN(c2ccc(OC[C@@H]3CO[C@@](Cn4ccnc4)(c4ccc(Cl)cc4Cl)O3)cc2)CC1 [WEHI-1215227] |  |  |  |  | 23.2 µM and 22.1 µM | 13.5 µM and 12.1 µM | 15.4 µM and 13.9 µM | 
11 | O.c1cnc2c(c1)ccc1cccnc12 [WEHI-1215482, 1,10-Phenanthroline monohydrate, reference compound] |  |  |  |  |  |  |  | % Inhibition Counter [5]: 2.663%; inhibition at 10 µM ([2]; read-out: % Inhibition Confirmation): 99.6%
12 | CN1CCc2cccc3c2[C@H]1Cc1ccc(O)c(O)c1-3 [WEHI-1216442] |  |  |  |  | > 25 µM | > 25 µM | ~4.07 µM and 4.14 µM | 
13 | O=C([O-])c1ccccc1-c1c2cc(Br)c(=O)cc-2oc2[c]([Hg+])c([O-])c(Br)cc12.[Na+].[Na+].[OH-] [WEHI-1216497, Merbromin, reference compound] |  |  |  |  |  |  |  | % Inhibition Counter [5]: 29.2235%; % Inhibition Confirmation ([2]; confirmation, single point, 10 μM in duplicate): 100.385%; % Inhibition Pilot ([2]; primary screen, 20 μM): 100.87%
14 | O=C(Nc1cccc2c(=O)cc(-c3nnn[nH]3)oc12)c1ccc(OCCCCc2ccccc2)cc1 [WEHI-1216506] |  |  |  |  | 24.8 µM and > 25 µM | 10.4 µM and 12.5 µM | 5.28 µM and ~5.6 µM | 
15 | COCCCOc1ccnc(C[S+]([O-])c2nc3ccccc3[nH]2)c1C (stereo not shown) [WEHI-1216602] |  |  |  |  | > 25 µM | > 25 µM | 1.08 µM and 1.23 µM | 
16 | CCC(CC)(CC(=O)Nc1cccc(/C=C/c2nc(C3CCC3)cs2)c1)C(=O)O [cinalukast, reference compound] | 32 µM | > 50 µM | reduction in numbers of merozoites that had invaded and formed early ring stages | > 50 µM |  |  |  | free merozoite numbers (D10-PfPHG parasites; [7]): similarly reduced numbers of free merozoites; Rh5 inhibitory activity in the AlphaScreen assay ([2]; highest concentration tested 50 μM): did not show Rh5 inhibitory activity
17 | cDPCP [WEHI-1215640, reference compound] |  |  |  |  |  |  |  | % Inhibition Counter [5]: 2.1075%

— PMC7645381, “Development and application of a high-throughput screening assay for identification of small molecule inhibitors of the P. falciparum reticulocyte binding-like homologue 5 protein” (International Journal for Parasitology: Drugs and Drug …, 2020)
